Results: patent US20250195530A1, “POLQ INHIBITORS” (ASTRAZENECA AB, priority 2022, published 2025)
Where two headings read alike, the source gives them in different places.

Assays:
DLD-1 cells = experiment: Inhibition of proliferation, DLD-1 BRCA2 wt control (Cell Titre Glo 3D); type: cell-based; details: for IC50: Homo sapiens
How it was run: (§1)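 Proliferation of HR-deficient DLD-1 BRCA2−/− versus isogenic wild-type DLD-1 was measured by ATP luminescence (CellTiter-Glo 3D). Compound exposure lasted 12 or 7 days, respectively, with a fresh dose on day 6. IC50 was the concentration halving maximal signal.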

DLD-1 BRCA2−/− cells = experiment: Homologous recombination synthetic lethal inhibition of proliferation, DLD-1 BRCA2-/- (Cell Titre Glo 3D); type: cell-based; details: for IC50: Homo sapiens
How it was run: as §1

[1] = DLD-1, second proliferation column, DLD-1 BRCA2 wt control, read-out: POLQ PD Prolif Lumin (converted)
[2] = DLD-1, first proliferation column, DLD-1 BRCA2-/-, read-out: POLQ PD Prolif Lumin (converted)
[3] = DLD-1, DLD1 BRCA2 wt, mean, read-out: POLQ PD Prolif Lumin DLD1 mean pIC50 (converted)
[4] = DLD-1, DLD-1 BRCA2 −/−, mean, read-out: POLQ PD Prolif Lumin BRCA2 −/− mean pIC50 (converted)

| SMILES | IC50 (DLD-1 cells; [1]) [nM] | IC50 (DLD-1 BRCA2−/− cells; [2]) [nM] | IC50 (DLD-1 cells; [3]) [nM] | IC50 (DLD-1 BRCA2−/− cells; [4]) [nM] | further results |
| --- | --- | --- | --- | --- | --- |
| Cc1ccnc(Cn2c(-c3ccc(OCCCN4CC[C@@H](O)C4)cc3Cl)nc3c(OC4(C)CC4)ncnc32)c1 [Example T592, (R)-1-(3-(3-chloro-4-(6-(1-methylcyclopropoxy)-9-((4-methylpyridin-2-yl)methyl)-9H-purin-8-yl)phenoxy)propyl)pyrrolidin-3-ol] | > 10000 | 200 | – | – | – |
| Cc1ccnc(Cn2c(-c3cccc(OCCCN4CC[C@@H](O)C4)c3Cl)nc3c(OC4(C)CC4)ncnc32)c1 [Example T593, (R)-1-(3-(2-chloro-3-(6-(1-methylcyclopropoxy)-9-((4-methylpyridin-2-yl)methyl)-9H-purin-8-yl)phenoxy)propyl)pyrrolidin-3-ol] | > 10000 | 251 | – | – | – |
| Cc1ccnc(Cn2c(-c3ccc(OCCN4CCNC[C@@H]4C)cc3Cl)nc3c(OC4(C)CC4)ncnc32)c1 [Example T594, (S)-8-(2-chloro-4-(2-(2-methylpiperazin-1-yl)ethoxy)phenyl)-6-(1-methylcyclopropoxy)-9-((4-methylpyridin-2-yl)methyl)-9H-purine] | 2510 | 501 | – | – | – |
| Cc1cc(C)nc(Cn2c(-c3ccc(OCCN4CCNCC4)cc3Cl)nc3c(OC4(C)CC4)ncnc32)c1 [Example T595, 8-(2-chloro-4-(2-(piperazin-1-yl)ethoxy)phenyl)-9-((4,6-dimethylpyridin-2-yl)methyl)-6-(1-methylcyclopropoxy)-9H-purine] | > 10000 | 1260 | – | – | – |
| Cc1cnc(Cn2c(-c3ccc(OCCN4CCNCC4)cc3Cl)nc3c(OC4(C)CC4)ncnc32)cc1C [Example T596, 8-(2-chloro-4-(2-(piperazin-1-yl)ethoxy)phenyl)-9-((4,5-dimethylpyridin-2-yl)methyl)-6-(1-methylcyclopropoxy)-9H-purine] | > 10000 | 5010 | – | – | – |
| Cc1ccnc(Cn2c(-c3ccc(OCCN4CCNCC4)cc3Cl)nc3c(OC4(C)CC4)ncnc32)c1C [Example T597, 8-(2-chloro-4-(2-(piperazin-1-yl)ethoxy)phenyl)-9-((3,4-dimethylpyridin-2-yl)methyl)-6-(1-methylcyclopropoxy)-9H-purine] | 6310 | 2510 | – | – | – |
| Cc1ccnc(Cn2c(-c3ccc(CC(=O)N4C[C@@H](C)N[C@@H](C)C4)cc3Cl)nc3c(OC4(C)CC4)ncnc32)c1 [Example T606, 2-(3-chloro-4-(6-(1-methylcyclopropoxy)-9-((4-methylpyridin-2-yl)methyl)-9H-purin-8-yl)phenyl)-1-((3R,5S)-3,5-dimethylpiperazin-1-yl)ethan-1-one] | > 10000 | 794 | – | – | – |
| Cc1ccnc(Cn2c(-c3ccc(OCCN4CCNCC4)cc3Cl)nc3c(OC(C)(C)C)cccc32)c1 [Example T609, 4-(tert-butoxy)-2-(2-chloro-4-(2-(piperazin-1-yl)ethoxy)phenyl)-1-((4-methylpyridin-2-yl)methyl)-1H-benzo[d]imidazole] | > 10000 | 1580 | – | – | – |
| COCc1cc(OCCN2CCN(C)CC2)ccc1-c1nc2c(OC3(C)CC3)ncnc2n1Cc1ccccc1 [Example T612, 9-benzyl-8-(2-(methoxymethyl)-4-(2-(4-methylpiperazin-1-yl)ethoxy)phenyl)-6-(1-methylcyclopropoxy)-9H-purine] | > 10000 | 1000 | – | – | – |
| C[C@@H](CCOc1ccc(-c2nc3c(OC4(C)CC4)ncnc3n2Cc2cccc(C#N)c2)c(Cl)c1)C(=O)O [Example U8, (S)-4-(3-chloro-4-(9-(3-cyanobenzyl)-6-(1-methylcyclopropoxy)-9H-purin-8-yl)phenoxy)-2-methylbutanoic acid] | – | – | > 6310 | 398 | – |
| C[C@H](CCOc1ccc(-c2nc3c(OC4(C)CC4)ncnc3n2Cc2cc(Cl)ccc2F)c(Cl)c1)C(=O)O [Example U10, (R)-4-(3-chloro-4-(9-(5-chloro-2-fluorobenzyl)-6-(1-methylcyclopropoxy)-9H-purin-8-yl)phenoxy)-2-methylbutanoic acid] | – | – | > 10000 | 63.1 | – |
| C[C@@H](CCOc1ccc(-c2nc3c(OC4(C)CC4)ncnc3n2Cc2cc(Cl)ccc2F)c(Cl)c1)C(=O)O [Example U11, (S)-4-(3-chloro-4-(9-(5-chloro-2-fluorobenzyl)-6-(1-methylcyclopropoxy)-9H-purin-8-yl)phenoxy)-2-methylbutanoic acid] | – | – | > 6310 | 50.1 | – |
| CC1(Oc2ncnc3c2nc(-c2cccc(OCCOCC(=O)O)c2Cl)n3Cc2cc(Cl)ccc2F)CC1 [Example U22, 2-(2-(2-chloro-3-(9-(5-chloro-2-fluorobenzyl)-6-(1-methylcyclopropoxy)-9H-purin-8-yl)phenoxy)ethoxy)acetic acid] | – | – | > 10000 | 50.1 | – |
| C[C@@H](CCOc1cccc(-c2nc3c(OC4(C)CC4)ncnc3n2Cc2cc(Cl)ccc2F)c1Cl)C(=O)O [Example U24, (S)-4-(2-chloro-3-(9-(5-chloro-2-fluorobenzyl)-6-(1-methylcyclopropoxy)-9H-purin-8-yl)phenoxy)-2-methylbutanoic acid] | – | – | > 10000 | 12.6 | – |
| C[C@H](CCOc1cccc(-c2nc3c(OC4(C)CC4)ncnc3n2Cc2cc(Cl)ccc2F)c1Cl)C(=O)O [Example U26, (R)-4-(2-chloro-3-(9-(5-chloro-2-fluorobenzyl)-6-(1-methylcyclopropoxy)-9H-purin-8-yl)phenoxy)-2-methylbutanoic acid] | – | – | > 10000 | 25.1 | – |
| CC(C)(CCOc1cccc(-c2nc3c(OC4(C)CC4)ncnc3n2Cc2cccc(Cl)c2)c1Cl)CC(=O)O [Example U28, 5-(2-chloro-3-(9-(3-chlorobenzyl)-6-(1-methylcyclopropoxy)-9H-purin-8-yl)phenoxy)-3,3-dimethylpentanoic acid] | – | – | > 10000 | 79.4 | – |
| COc1ccc(Cl)cc1Cn1c(-c2cccc(OCCCOCC(=O)O)c2Cl)nc2c(OC3(C)CC3)ncnc21 [Example U30, 2-(3-(2-chloro-3-(9-(5-chloro-2-methoxybenzyl)-6-(1-methylcyclopropoxy)-9H-purin-8-yl)phenoxy)propoxy)acetic acid] | – | – | > 10000 | 20 | – |
| COc1ccc(Cl)cc1Cn1c(-c2ccc(OCCC(C)(C)C(=O)O)cc2Cl)nc2c(OC3(C)CC3)ncnc21 [Example U31, 4-(3-chloro-4-(9-(5-chloro-2-methoxybenzyl)-6-(1-methylcyclopropoxy)-9H-purin-8-yl)phenoxy)-2,2-dimethylbutanoic acid] | – | – | > 7940 | 50.1 | – |
| COc1ccc(Cl)cc1Cn1c(-c2cccc(O[C@H]3CC[C@H](C(=O)O)CC3)c2Cl)nc2c(OC3(C)CC3)ncnc21 [Example U38, (1r,4r)-4-(2-chloro-3-(9-(5-chloro-2-methoxybenzyl)-6-(1-methylcyclopropoxy)-9H-purin-8-yl)phenoxy)cyclohexane-1-carboxylic acid] | – | – | – | – | POLQ PD Prolif Lumin DLD1 mean pIC50 (DLD-1 cells; DLD1 BRCA2 wt, mean): 5.1; POLQ PD Prolif Lumin BRCA2 −/− mean pIC50 (DLD-1 BRCA2−/− cells; DLD-1 BRCA2 −/−, mean): 7.5 |
| CC1(Oc2ncnc3c2nc(-c2cc(F)cc(OCCC(=O)O)c2Cl)n3Cc2cccc(Cl)c2)CC1 [Example U39, 3-(2-chloro-3-(9-(3-chlorobenzyl)-6-(1-methylcyclopropoxy)-9H-purin-8-yl)-5-fluorophenoxy)propanoic acid] | – | – | > 10000 | 12.6 | – |
